Patent US7955815B2, “Two-photon fluorescent probes for acidic vesicles in live cells and tissue and method of imaging acidic vesicles in live cells and tissue using the same” (Korea University Industrial & Academic Collaboration …, priority 2007, dated 2011)
Converted amounts (≈) assume the structure as drawn.

Legend:
[1] = Water solubility from fluorescence intensity vs probe concentration; type: physicochemical; details: kinetic from dmso stock, H2O, 0.2% DMSO, read-out: solubility (maximum concentration in the linear region)
Protocol: Each of the probes AH1, AH2 and AL1 prepared in Examples 1-3 was dissolved in DMSO to prepare a stock solution (1.0×10^−3 M). The solution was diluted to […] and added to a cuvette containing 3.0 mL of H2O by using a micro syringe. In all cases, the concentration of DMSO in H2O was maintained to be 0.2%. The fluorescence intensity of the probe was measured as a function of the probe concentration.
Referring to FIG. 1, the fluorescence intensities of the probes increased in all wavelength bands with increasing probe concentration.
The plots (1b, 1d and 1f) have a profile in which the fluorescence intensity increases with increasing probe concentration.
Referring to the profile, the fluorescence intensity increases linearly until the dye concentration reaches a predetermined level. […] The maximum concentration in the linear region was taken as the solubility. The solubilities of the probes AH1, AH2, and AL1 were 5.0, 9.0, and 5.0 μM, respectively.

[2] = Fluorescence as a function of pH in universal buffer; pKa value analysis; type: physicochemical; details: for fluorescence intensity change with pH: pH gradually decreased; for pKa: universal buffer solution, from fluorescence intensity as a function of pH
Protocol: Each of the probes AH1 and AH2 was dissolved in a universal buffer solution (0.1 M citric acid, 0.1 M KH2PO4, 0.1 M Na2B4O7, 0.1 M Tris, 0.1 M KCl 10 mM).
The fluorescence intensities of the probes AH1 and AH2 were measured, and titration curves thereof were plotted (FIG. 9). In FIG. 9, Y-axis represents the fluorescence intensity enhancement factor [(F−Fo)/Fo] (F is the fluorescence intensity and Fo is the minimum fluorescence intensity).
The pKa values were estimated from the fluorescence intensity measured as a function of the pH by using the relationship 1: log [(Imax−I)/(I−Imin)]=pH−pKa (1)
wherein I represents the fluorescence intensity, and Imax and Imin represent the maximum and minimum fluorescence intensity, respectively.

[3] = Two-photon action cross section by fs fluorescence measurement, fluorescein as reference; type: physicochemical; details: 780 nm
Protocol: The two-photon cross section (δ) was determined by using femto second (fs) fluorescence measurement technique.
Specifically, each of the probes AH1, AH2, AL1 and LYSOTRACKER™ Red (DND-99) was dissolved in a universal buffer (pH=3.2) at a concentration of 5.0×10^−6 M and then the two-photon induced fluorescence intensity was measured at 740-940 nm by using fluorescein (8.0×10^−6 M, pH=11) as the reference, whose two-photon property has been well characterized.
The intensities of the two-photon induced fluorescence spectra of the reference and the sample probe were measured, and the two-photon cross section of the sample probe was calculated according to Equation 2: […]
wherein the subscripts s and r represent the sample probe and the reference, respectively, δ represents the two-photon cross section of the sample probe, and S represents the intensity of the signal collected by a detector, Φ represents the fluorescence quantum yield, φ represents the overall fluorescence collection efficiency of the experimental apparatus, c represents the number density of the molecules in solution, and δr represents the two-photon cross section of the reference.
The two-photon action cross section of the sample probe was calculated by multiplying the two-photon cross section by the quantum yield.

[4] = test system: acidic vesicles in macrophages; test: Two-photon microscopy images of labeled macrophages, co-localized with LysoTracker Red OPM image; type: cell-based; details: TPM
From the text: TPM images of individual macrophages labeled with the probe AH2 of Example 2 were obtained (FIG. 3).
In contrast, the TPM images of the AH2-labeled macrophages emitted TPEF only at 500-620 nm (3b), and not at 360-460 nm (3a), which was attributed to the membrane-bound probe.
To unambiguously determine whether the intense red spots (3b) are indeed the acidic vesicles, the macrophages were stained With LYSOTRACKER™ Red (LTR), a well known one-photon fluorescent probe, and a one-photon micrography (OPM) image thereof was obtained (3c). The TPM image was co-localized with the OPM image (3d).
Acidic vesicles were imaged in the same manner as in Experimental Example 3-(1), except that the probe AH1 of Example 1 was used instead of the probe AH2 of Example 2.
Acidic vesicles were imaged in the same manner as in Experimental Example 3-(1), except that the probe AL1 of Example 3 was used instead of the probe AH2 of Example 2.

[5] = test system: acidic vesicles in hippocampal slices; test: TPEF imaging of rat hippocampal slices
Protocol: Slices were prepared from the hippocampi of a 2-day-old rat. The hippocampal slices were cut into a thickness of 400 μm. The slices were incubated with the probes AH2 and AL1 (10-20 μM).
The slices were then washed and transferred to glass-bottomed dishes. The TPEF images of the slices were obtained.
40 TPM images were accumulated along the z-direction at the depth of ˜100-250 μm with magnification 10× (6b).

Row | Compound | solubility [1] | fluorescence intensity change with pH [2] | pKa [2] | two-photon action cross section relative to LysoTracker Red [3] | imaging of acidic vesicles in macrophages (TPEF at 500-620 nm, merged with LTR image) [4] | depth at which TPEF images were obtained ([5]; 400 μm hippocampal slices of 2-day-old rat, probe 10-20 μM) | two-photon action cross section (Φδ) ([3]; universal buffer pH 3.2, 5.0×10^−6 M) | imaging of transportation of acidic vesicles ([5]; acute rat hippocampal slice, CA3 region, depth ~120 μm, 10 μM)
1 | COc1cc(NC(=O)CN(C)c2ccc3cc(C(C)=O)ccc3c2)ccc1N [AH2] | 9 µM (≈ 3.4 µg/mL) | increased dramatically around pH 4-5 | 4.18 ± 0.01 | 9 fold | clearly capable of imaging the acidic vesicles | 250 μm | – | –
2 | CN(C)CCNC(=O)CCc1ccc2n1[B-](F)(F)[N+]1=C(c3ccc[nH]3)C=CC1=C2 [LYSOTRACKER™ Red (LTR), reference compound] | – | – | – | – | – | – | ~10 GM | –
3 | CC(=O)c1ccc2cc(N(C)CC(=O)NCCN(C)C)ccc2c1 [AL1] | 5 µM (≈ 1.64 µg/mL) | maintained at a substantially constant level despite changes in acidity | – | – | clearly capable of imaging the acidic vesicles | – | – | can visualize the transportation of acidic vesicles in the CA3 region for a long period of time
4 | CC(=O)c1ccc2cc(N(C)CC(=O)Nc3ccc(N)cc3)ccc2c1 [AH1] | 5 µM (≈ 1.74 µg/mL) | increased dramatically around pH 4-5 | 4.42 ± 0.03 | 9 fold | clearly capable of imaging the acidic vesicles | – | – | –
